We go through 44 compounds from PubChem BioAssay AID2696 (Johns Hopkins Ion Channel Center, 2010).

For this experiment, the target named is Short transient receptor potential channel 6 (Mus musculus) (UniProt Q61143). As to the kind of experiment: TRPC6 inhibitor potency, dose response, cell-based, mouse TRPC6, HEK293, membrane potential (AID 2696). Conditions: TRPC6-expressing HEK293 cells, membrane potential dye fluorescence, acetylcholine-stimulated.
Chain of Short transient receptor potential channel 6 (Mus musculus) (Q61143 whole entry, looked up): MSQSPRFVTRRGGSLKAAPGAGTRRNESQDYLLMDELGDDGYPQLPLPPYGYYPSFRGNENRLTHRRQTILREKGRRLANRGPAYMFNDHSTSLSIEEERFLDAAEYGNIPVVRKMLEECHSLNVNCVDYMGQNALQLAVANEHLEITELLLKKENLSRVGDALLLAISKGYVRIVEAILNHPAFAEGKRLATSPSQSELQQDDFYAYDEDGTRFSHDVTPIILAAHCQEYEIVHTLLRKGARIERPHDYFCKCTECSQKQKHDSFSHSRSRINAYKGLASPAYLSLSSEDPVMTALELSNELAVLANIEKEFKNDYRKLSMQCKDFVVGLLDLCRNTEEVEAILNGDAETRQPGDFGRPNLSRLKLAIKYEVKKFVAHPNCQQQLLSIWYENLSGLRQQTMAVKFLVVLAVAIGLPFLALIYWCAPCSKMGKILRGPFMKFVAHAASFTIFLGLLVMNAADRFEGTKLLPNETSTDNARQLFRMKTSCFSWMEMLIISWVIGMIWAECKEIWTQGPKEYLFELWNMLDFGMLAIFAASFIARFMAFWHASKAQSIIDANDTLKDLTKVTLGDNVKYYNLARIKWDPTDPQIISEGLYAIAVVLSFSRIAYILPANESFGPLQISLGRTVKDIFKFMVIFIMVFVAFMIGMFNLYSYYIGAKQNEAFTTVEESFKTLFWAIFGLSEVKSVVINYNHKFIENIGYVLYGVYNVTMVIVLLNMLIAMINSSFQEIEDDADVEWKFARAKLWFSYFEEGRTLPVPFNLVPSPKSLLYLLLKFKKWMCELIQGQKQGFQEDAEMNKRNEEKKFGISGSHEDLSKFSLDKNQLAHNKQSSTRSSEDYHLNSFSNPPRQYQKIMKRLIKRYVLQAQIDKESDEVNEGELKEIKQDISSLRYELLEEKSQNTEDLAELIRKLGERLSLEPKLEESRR
What is called IC50 is the concentration needed to halve the response being measured. Take `CC1(C(O)(C#CC[N+]2(C)CCCCC2)c2ccccc2)CCCC1` (centres undefined): the IC50 is 0.14 µM.

In the case of `COc1ccc(OC)c2sc(N(CCN(C)C)C(=O)c3ccc4ccccc4c3)nc12`, the IC50 was 70.8 µM.

In the case of `Cc1c(CCCN)c2ccccc2n1Cc1ccccc1`, the IC50 was 70.8 µM.

Consider `Cc1ccc(C(O)(CCN2CCCCC2)c2ccccc2)cc1` (centres undefined), for which the concentration for half-maximal inhibition (IC50) was 19.9 µM.

Regarding `CCCc1cc(-c2[nH]ncc2-c2ccc3c(c2)OCCCO3)c(O)cc1O`, the IC50 was 50.1 µM.

As for `Nc1nc(N2CCN(C/C=C/c3ccccc3)CC2)nc2ccccc12`, the IC50 was 44.7 µM.

Consider `C[N+]12CCC(CC1)C(=C(c1ccccc1)c1ccccc1)C2`, for which the IC50 is 4.47 µM.

Turning to `O=C1c2cccc3cccc(c23)C(=O)N1CC1CCN(CC(O)COCc2ccc3c(c2)OCO3)CC1` (centres undefined), the IC50 is 50.1 µM.

As for `CCSc1ccc2cc(OC)ccc2[n+]1CC`, the IC50 was 50.1 µM.

Turning to `CCN(CC)CC(=O)N1c2ccccc2Sc2ccc(Cl)cc21`, the IC50 was 44.7 µM.

Take `CN(C)CCOC(=O)C(c1ccccc1)C1(O)CCCC1` (centres undefined): the IC50 was 1.78 µM.

On to `CCCCCCCCCCn1ccc(=N)cc1`, for which the half-inhibitory concentration (IC50) was 39.8 µM.

Turning to `CC1CCN(Cc2ccc(NC(=O)CC3Oc4ccccc4NC3=O)cc2)CC1` (centres undefined), the half-inhibitory concentration (IC50) is 2.24 µM.

`CC(NC(=O)Nc1nnc(C(F)(F)F)s1)(C(F)(F)F)C(F)(F)F`: the IC50 is 22.4 µM.

As to `Cc1ccc(Sc2c([N+](=O)[O-])c(C)nn2C)cc1`, the IC50 was 35.5 µM.

`CCC(C)N(CCNC(=O)CC1Oc2ccc(C)cc2NC1=O)C1CCCCC1` (centres undefined): the IC50 was 15.8 µM.

Consider `CC(/C=N/n1c(-c2n[nH]c3c2CCC3)n[nH]c1=S)=C\c1ccco1`, for which the IC50 is 8.91 µM.

As to `CCN(CC)CCNc1nc2cc(OC)c(OC)cc2c2nc(-c3ccccc3)nn12`, the IC50 is 79.4 µM.

With `CCN(CC)CCOC(=O)C1(c2ccccc2)CCCC1`, the IC50 is 15.8 µM.

`CN(C)CCNS(=O)(=O)c1ccc(N2CCN(c3ccc(F)cc3)CC2)c([N+](=O)[O-])c1`: the IC50 was 56.2 µM.

With `COc1ccc(C2NC(=O)NC(O)(C(F)(F)F)C2C(=O)c2ccc(C)cc2)cc1` (centres undefined), the IC50 was 14.1 µM.

On to `Cc1cc(C)nc(/N=C(\N)N(Cc2ccccc2)Cc2ccccc2)n1`, for which the IC50 was 28.2 µM.

On to `O=C(CCCOc1ccc(Cl)cc1Cl)N1CCN(c2ccccn2)CC1`, for which the concentration for half-maximal inhibition (IC50) is 63.1 µM.

As to `CCCc1cc(=S)n2c([nH]c3ccccc32)c1C#N`, the IC50 was 50.1 µM.

For the compound `CC(C)c1ccc(N2C(=O)CC(Sc3nc4ccccc4o3)C2=O)cc1` (centres undefined), the concentration for half-maximal inhibition (IC50) was 44.7 µM.

Turning to `CC(O)CNCCNCc1c(OCc2ccccc2)ccc2ccccc12` (centres undefined), the IC50 is 44.7 µM.

Consider `Nc1c2ccccc2nc2ccccc12`, for which the IC50 is 70.8 µM.

As to `CN(C)CCn1c(C(=O)Nc2ccccc2)cc2ccccc21`, the IC50 was 39.8 µM.

For `CCN(CC)CCCOC(=O)C(OC(C)C)(c1ccccc1)c1ccccc1`, the IC50 was 3.98 µM.

For `CCN1C(=O)/C(=C\N2CCCCCC2)SC1=S`, the IC50 was 14.1 µM.

For `Brc1ccc(-c2c[n+]3c(n2-c2ccccc2)SCC3)cc1`, the IC50 was 50.1 µM.

For `COCCNC(=O)c1cc2c(=O)n3cccc(C)c3nc2n(Cc2ccncc2)c1=N`, the IC50 was 39.8 µM.

Turning to `OC(C#CCCN1CCCCC1)(c1ccccc1)C1CCCCC1` (centres undefined), the IC50 was 3.55 µM.

`OC(Cn1c2ccccc2c2ccccc21)C[n+]1cccc2ccccc21` (centres undefined): the 50% inhibitory concentration (IC50) was 35.5 µM.

`Cc1cccc(-c2nc(NCCCN3CCOCC3)c3ccccc3n2)c1`: the IC50 is 70.8 µM.

For the compound `OC(C#CCCN1CCCCC1)(c1ccccc1)c1ccccc1`, the IC50 is 39.8 µM.

Turning to `O=[N+]([O-])c1cc([N+](=O)[O-])c2c(=Nc3ccccc3)n(-c3ccccc3)n(O)c2c1`, the IC50 was 50.1 µM.

Take `CN(C)c1ccc(C2N(C)C(=O)c3ccccc3N2C)cc1` (centres undefined): the IC50 is 79.4 µM.

With `CCCCCOc1ccc(CSC(=N)N)cc1[N+](=O)[O-]`, the IC50 was 79.4 µM.

With `CC1CCCN1CC#CC(O)(c1ccccc1)c1ccccc1` (centres undefined), the IC50 was 11.2 µM.

In the case of `Cc1cccc(C(=O)NNC2=C(C(=O)C(F)(F)F)CCC2)c1O`, the half-inhibitory concentration (IC50) is 44.7 µM.

Turning to `COC(=O)c1ccc(NC(=O)c2snnc2-c2ccccc2)cc1`, the IC50 was 39.8 µM.

Regarding `Cc1cc(N(CCO)CCO)ccc1N=Nc1cc(F)ccc1F`, the IC50 is 50.1 µM.

With `CCCN(CC1CC1)C(=O)CCc1nnc(CCc2c[nH]c3ccccc23)o1`, the IC50 was 50.1 µM.
